Results published in PMC7412073, “Pharmacokinetics and Metabolism of Liposome-Encapsulated 2,4,6-Trihydroxygeranylacetophenone in Rats Using High-Resolution Orbitrap Liquid Chromatography Mass Spectrometry” (Molecules, 2020).
Read-outs that look alike come from different tables or passages of the source.

Columns and labels:
[1] = Metabolite identification in rat blood, urine and feces (UHPLC-MS/MS); type: in vivo, Sprague-Dawley rats; design: key: B, U and F represent blood, urine and feces samples, respectively; B, U and F represent blood, urine and feces samples, respectively; B, U and F represent blood, urine and feces samples, respectively; settings: rats dosed orally with 20 mg/kg liposomes-encapsulated tHGA, samples over 24 h
Method: Groups 4 to 6 were used for single-dose drug metabolism study. Each rat was kept in individual metabolic cages. Urine and faeces were collected from each rat in the tHGA-treated group 4 and control group 5 at four different times over a period of 24 h. The samples were stored at −80 °C until further analysis. For the determination of plasma metabolites, blood was sampled from each rat in the control group 6, according to the same procedure as in the pharmacokinetic study. Blood samples collected from the tHGA-treated group 2 in the pharmacokinetics study were also used for the metabolism study.
For the drug metabolism study, for each rat, plasma samples collected over a period of 24 h were combined and tHGA was similarly extracted from the samples. For the urine samples, for each rat, samples collected over the 24 h period were combined and centrifuged for 15 min at 14,000 rpm. The supernatant was then vacuum-evaporated at 40 °C to a volume of 5 mL, after which, 30 mL methanol was added, the mixture sonicated for 25 min, followed by centrifuging at 10,000 rpm for 15 min. The supernatant was again vacuum-concentrated at 40 °C, to a volume of 5 mL, filtered through 0.45 μm membrane filter into an LC-MS vial and then injected (10 µL) to UHPLC-MS/MS system for spectral acquisition.
[…] collected over 24 h was homogenized with distilled water in the ratio of 1 g to 3 mL and sonicated for 10 min. From this mixture, 3 mL was taken and mixed with 9 mL methanol. After that, the mixture was sonicated for 30 min and then centrifuged at 14,000 rpm for 15 min. The supernatant was taken to dryness using a rotary evaporator at 40 °C. The residue was then reconstituted in 1 mL ACN (80%), filtered through 0.45 μm membrane filter, and injected to the UHPLC-MS/MS system for acquisition of spectra.
For the identification of tHGA and its metabolites simultaneously, MS detection was operated under a heated electrospray ion source (H-ESI II) using positive/negative switching ionization mode to maximize metabolite coverage in every injection. The H-ESI parameters were optimized as follows: spray voltage (+) and (−) 4.2 and 3.5 kV respectively, capillary temperature 320 °C, S-lens RF level 55, sheath gas flow rate 45, auxiliary gas 10 and sweep gas 2 (manufacturer’s units). Nitrogen was used for the source, Orbitrap bath gas, and the higher energy collision dissociation (HCD) cell collision. The full-scan MS data were recorded across the mass range of 50–1500 m/z. The resolution was 70,000 (FWHM) at m/z 200, with automatic gain control (AGC) target of 1 × 10^6 ions and an auto maximum ion injection time (IT).
All MS data acquired using the Q Exactive MS were controlled by Xcalibur 4.0 software (Thermo Fisher Scientific). The MS data from plasma-, urine-, and feces-treated, as well as the control samples were analyzed using Compound Discoverer software 2.1 (Thermo Fisher Scientific) for the identification of tHGA metabolites. The software extracted information about metabolite m/z values depending on a list of expected metabolites. As no standards or literature information were available to confirm tHGA metabolites structure, tentative elucidation of the metabolites was performed according to Schymanski classification. A list of putative metabolites with the probable metabolism pathway was created for peaks based on MS, MS/MS fragmentation and the isotopic pattern of tHGA. The matching percentage between measured and theoretical MS/MS spectra was determined depending on the existence/absence of theoretical fragments in the MS/MS spectra generated experimentally. In addition, the site of metabolism was determined based on the tHGA structure with the help of a web server site for metabolism predictor [27, 28].

[2] = Single-dose pharmacokinetic study of free and liposome-encapsulated tHGA in rats (plasma, LC-HRMS); type: in vivo, Sprague-Dawley rats; settings: for Fr (relative oral bioavailability): PO 20 mg/kg relative to IP 20 mg/kg tHGA-loaded liposomes, rats
Method: Thirty healthy male Sprague-Dawley (S.D.) rats, weighing between 180 and 225 g on the day of dosing, were kept in polypropylene cage base with stainless steel wire top clips for three days before the experiment. The living environment of the animals was controlled as follows: 12/12-h dark/light cycle, temperature maintained between 22 to 25 °C, daily feeding with commercial pellet food, and tap water. Rats were fasted 12 h before dosing and labeled with a designated number at the base of their tails. The rats were then randomly divided into six groups as follows: • Group 1 (n = 6) were dosed orally with 20 mg/kg of free tHGA. • Group 2 (n = 6) were dosed orally with 20 mg/kg of liposomes-encapsulated tHGA. • Group 3 (n = 6) were dosed intraperitoneally with 20 mg/kg of liposomes-encapsulated tHGA • Group 4 (n = 4) were dosed orally with 20 mg/kg of liposomes-encapsulated tHGA. • Group 5 (n = 4, control) were dosed orally with blank liposomes formulation (for urine and feces collection). • Group 6 (n = 4, control) were dosed orally with blank liposomes formulation (for blood collection).
Groups 1 to 3 were used for the single-dose pharmacokinetic study. An aliquot of 200 µL of blood was drawn from each rat via the tail vein into polypropylene tubes containing a disodium K2EDTA solution (10%) as an anticoagulant at the pre-specified time points; at 0.25, 0.5, 1.5, 2, 4, 8 and 24 h for groups 1 and 2 after PO dose, and at 0.08, 0.5, 1.5, 2, 4, 8 and 24 h for group 3 after IP dose. Blood samples were centrifuged at 14,000 rpm at 20 °C for 10 min to separate the plasma which was then stored under −80 °C until further analysis. Animals were allowed to feed two hours after the first sample time point.
For the pharmacokinetic study, the same procedure used in the preparation of the standard solutions was used to extract tHGA from plasma samples.
LC-MS analysis was performed using a Thermo Scientific™ Q Exactive™ Focus Hybrid Quadrupole-Orbitrap™ Mass Spectrometer (Thermo Fisher Scientific, Bremen, Germany) attached to a Thermo Scientific Dionex Ultimate 3000 Series RS pump coupled with a Thermo Scientific Dionex Ultimate 3000 Series TCC-3000RS column compartments and a Thermo Fisher Scientific Ultimate 3000 Series WPS-3000RS autosampler (Thermo Fisher Scientific, Sunnyvale, CA, USA) controlled by Xcalibur Software 4.0 (Thermo Fisher Scientific, Waltham, MA, USA). The chromatographic separation was carried out using a Hypersil GOLD C18 column (100 × 2.1 mm, 1.9 μm) (Thermo Fisher Scientific, Waltham, MA, USA) and the mobile phase consisted of water with 0.1% formic acid (solvent A) and acetonitrile with 0.1% formic acid (solvent B). Gradient elution was run at 0.3 mL/min, with 10% solvent B at the start (t = 0 min), increasing to 70% solvent B at t = 5 min. The gradient was then maintained for 3 min at 70% solvent B until t = 8 min before again increasing solvent B to 100% until the end of the run at t = 9.5 min. The temperature of the autosampler was set to 4 °C. For the metabolism study, the same chromatographic conditions were used with a different elution system. A linear gradient elution from 0% to 100% of solvent B for 45 min was used.
Mass spectrometric detection was operated under a heated electrospray ion source (H-ESI II) in negative ionization mode. The H-ESI parameters were optimized as follows: spray voltage 3.5 kV, capillary temperature 320 °C, S-lens RF level 55, sheath gas flow rate 45, auxiliary gas 10 and sweep gas 2 (manufacturer’s units). Nitrogen was used for the source, Orbitrap bath gas, and the higher energy collision dissociation (HCD) cell collision. A targeted SIM data-dependent MS/MS (tSIM/ddMS2) acquisition was used with an inclusion mass list containing m/z and retention time of tHGA. The resolution was 35,000 (FWHM) at m/z 200, with automatic gain control (AGC) target of 5 × 10^4 ions and an auto maximum ion injection time (IT). […]

[3] = Short- and long-term stability of tHGA in rat plasma QC samples; type: in vitro ADME; settings: for Stability RE (%) Short-Term (4 °C): processed rat plasma sample, autosampler 4 °C, 24 h; for Stability RE (%) Short-Term (4 °C) / Stability RE (%) Long-Term (−80 °C): n = 6; for Stability RE (%) Long-Term (−80 °C): rat plasma, 1 month
Method: Short- and long-term stability studies of tHGA in plasma was assessed using six replicates at two concentration levels, LQC and HQC. The QC samples were analyzed against the standard curve which was freshly prepared. The short-term stability was evaluated by analyzing the processed QC samples kept in the autosampler (4 °C) for 24 h. For long-term stability, tHGA plasma samples in low and high concentrations were stored at −80 °C for 1 month.

[4] = PO, 20 mg/kg, male S.D rats, plasma, mean n = 6, listed as Free tHGA

SMILES: CC(=O)c1c(O)cc(O)c(C/C=C(\C)CCC(O)=C(C)C)c1O [M2]
- Source (sample in which the metabolite was detected) [1]: F, U

SMILES: CC(=O)c1c(O)cc(O)c(C/C=C(\C)CCC=C(C)C)c1O [tHGA, 2,4,6-trihydroxy-3-geranylacetophenone]
- Fr (relative oral bioavailability) ([2]; listed as Free tHGA): 9.07%
- Fr (relative oral bioavailability) ([2]; listed as unformulated tHGA): 9.1%
- Cmax [2, 4]: 5.35 ng/mL
- t1/2 (elimination half-life) [2, 4]: 6.95 h
- Tmax ([2]; Sprague-Dawley, rat, PO, 20 mg/kg, male S.D rats, plasma, mean n = 6): 0.25 h
- AUC(0-t) ([2]; male, Sprague-Dawley, rat, plasma, 20 mg/kg, oral administration, rats (unit as printed in abstract), read-out: AUC0–24): 17.6 ng·h/mL
- Cmax ([2]; male, Sprague-Dawley, rat, plasma, po, 20 mg/kg, PO, male S.D rats, plasma, mean n = 6, read-out: Cmax): 5.4 ng/mL
- half-life ([2]; male, Sprague-Dawley, rat, plasma, po, 20 mg/kg, PO, male S.D rats, plasma, mean n = 6, read-out: t1/2 (elimination half-life) (converted)): 6.9 h
- Stability RE (%) Short-Term (4 °C) ([3]; 1.5 ng/mL tHGA (LQC)): −4.66 ± 11.9%
- Stability RE (%) Long-Term (−80 °C) ([3]; 1.5 ng/mL tHGA (LQC)): 5.93 ± 2.8%
- Stability RE (%) Short-Term (4 °C) ([3]; 70 ng/mL tHGA (HQC)): 5.34 ± 6.9%
- Stability RE (%) Long-Term (−80 °C) ([3]; 70 ng/mL tHGA (HQC)): 5.34 ± 5.1%
- long-term stability, accuracy ([3]; LQC and HQC plasma samples, 1 month at −80 °C): 5.3–5.9%

SMILES: CC(=O)c1c(O)cc(O)c(C(O)/C=C(C)/C=C/C(O)=C(C)C)c1O (stereo not drawn) [M6]
- Source (sample in which the metabolite was detected) [1]: F, B

SMILES: CC(=O)c1c(O)cc(O)c(C/C=C(\C)CCCC(C)(C)O)c1O [M5]
- Source (sample in which the metabolite was detected) [1]: F

SMILES: CC(=O)c1c(O)cc(O)c(C/C=C(\C)CCC(O)C(C)(C)O)c1O (stereo not drawn) [M10]
- Source (sample in which the metabolite was detected) [1]: F

SMILES: CC(=O)c1c(O)cc(O)c(C(O)/C=C(\C)CCC(O)=C(C)C)c1O (stereo not drawn) [M4]
- Source (sample in which the metabolite was detected) [1]: F

SMILES: CC(=O)c1c(O)cc(OS(=O)(=O)O)c(C(O)/C=C(\C)CCC(O)=C(C)C)c1O (stereo not drawn) [M9]
- Source (sample in which the metabolite was detected) [1]: B

SMILES: CC(=O)c1c(O)cc(O)c(C/C=C(C)/C=C/C=C(C)C)c1O [M7]
- Source (sample in which the metabolite was detected) [1]: F

SMILES: CC(=O)c1c(O)cc(O)c(C(O)/C=C(\C)CCC=C(C)C)c1O (stereo not drawn) [M3]
- Source (sample in which the metabolite was detected) [1]: F, U
